Results taken from ChEMBL document CHEMBL3769344 (J Med Chem, 2016).
pEC50, pIC50: −log10 of the molar value.

What was measured:
MDCK = experiment: Cytotoxicity against MDCK cells assessed as cell viability after 72 hrs by MTT assay; type: cell-based, Canis lupus familiaris; conditions: dog
Influenza A virus = experiment: Antiviral activity against Influenza A virus A/udorn/72(H3N2) expressing wild type M2 proton channel infected in MDCK cells assessed as reduction in plaque formation preincubated for 30 mins followed by infection measured on day 2 post infection by naphthalene black dye-based assay; type: functional, organism-based, Influenza A virus (A/udorn/1972(H3N2))
[1] = target: Matrix protein 2 (Influenza A virus (A/Udorn/307/1972(H3N2)), UniProt P0DOF8); experiment: Inhibition of Influenza A virus wild type M2 proton channel infected in Xenopus laevis oocytes after 2 mins by TEVC assay; type: cell-based
Chain of Matrix protein 2 (Influenza A virus (A/Udorn/307/1972(H3N2)), UniProt P0DOF8) (P0DOF8 whole entry): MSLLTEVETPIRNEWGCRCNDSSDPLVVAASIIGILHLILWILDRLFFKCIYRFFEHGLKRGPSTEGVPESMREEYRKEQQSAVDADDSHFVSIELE

Compound | CC50 (MDCK) | other results
c1csc(-c2ncc(CNC34CC5CC(CC(C5)C3)C4)s2)c1 | 113 µM | 
c1csc(-c2nnc(CNC34CC5CC(CC(C5)C3)C4)s2)c1 | > 200 µM | 
c1csc(-c2cc(NC34CC5CC(CC(C5)C3)C4)no2)c1 | 100 µM | 
NC12CC3CC(CC(C3)C1)C2 [AMANTADINE] |  | pEC50 (Influenza A virus): 6.52
OC1C2CC3CC1CC(NCc1cc(-c4cccs4)on1)(C3)C2 (configuration not stated) | 116 µM | 
OC12CC3CC(O)(C1)CC(NCc1cc(-c4cccs4)on1)(C3)C2 | > 200 µM | 
C1CCC2(CC1)CCNCC2 |  | pIC50 [1]: 6.05
